Laboratory results from patent US9688681B2, “Heterocyclic compounds as pest control agents” (BAYER CROPSCIENCE AKTIENGESELLSCHAFT, priority 2013, dated 2017).

Columns and labels:
[1] = system: green peach aphid (Myzus persicae); test: Myzus persicae spray test on Chinese cabbage leaf discs; type: in vivo; conditions: application rate 500 g/ha, after 6 days
Source text: Discs of Chinese cabbage leaves (Brassica pekinensis) infested by all stages of the green peach aphid (Myzus persicae) are sprayed with an active ingredient formulation of the desired concentration.

[2] = log P by HPLC on reversed-phase C18 columns (OECD Guideline 117); type: physicochemical; conditions: HPLC RP C18, acidic range pH 2.7, 0.1% aqueous formic acid/acetonitrile
[3] = system: southern root-knot nematode (Meloidogyne incognita); conditions: application rate 20 ppm, after 14 days, lettuce in sand
Description: Meloidogvne incognita Test (MELGIN)
Solvent: 125.0 parts by weight of acetone
To produce an appropriate active ingredient formulation, 1 part by weight of active ingredient is mixed with the specified amounts of solvent and the concentrate is diluted to the desired concentration with water.
Vessels are filled with sand, active ingredient solution, an egg/larvae suspension of the southern root-knot nematode (Meloidogyne incognita) and lettuce seeds. The lettuce seeds germinate and the plants develop.
After 14 days, the nematicidal efficacy in % is determined by the formation of galls.

## O=c1c2cn(-c3cccnc3)nc2ncn1-c1ccc(Cl)cc1 [compound 14]
[1]
  efficacy (aphids killed): 90%
[2]
  logP[a]: 1.74
[3]
  nematicidal efficacy (formation of galls): 100%
